Measurements from ChEMBL document CHEMBL1143409, “Efflux-related resistance to norfloxacin, dyes, and biocides in bloodstream isolates of Staphylococcus aureus” (2007).
In brackets after ≈: the same amount, converted by molar mass.

Columns and labels:
Staphylococcus aureus [1] = assay: Antimicrobial activity against methicillin-resistant Staphylococcus aureus effluxing isolate; assay type: functional
Staphylococcus aureus [2] = assay: Inhibition of multidrug-resistant efflux pump in methicillin-resistant Staphylococcus aureus effluxing isolate assessed as fold reduction of chlorehexidin MIC at 10 ug/ml by microdilution method; assay type: functional
Staphylococcus aureus [3] = assay: Inhibition of multidrug-resistant efflux pump in methicillin-resistant Staphylococcus aureus effluxing isolate assessed as fold reduction of dequalinium MIC at 10 ug/ml by microdilution method; assay type: functional
Staphylococcus aureus [4] = assay: Inhibition of multidrug-resistant efflux pump in methicillin-resistant Staphylococcus aureus effluxing isolate assessed as fold reduction of acriflavine MIC at 10 ug/ml by microdilution method; assay type: functional
Staphylococcus aureus [5] = assay: Inhibition of multidrug-resistant efflux pump in methicillin-resistant Staphylococcus aureus effluxing isolate assessed as fold reduction of ethidium-bromide MIC at 10 ug/ml by microdilution method; assay type: functional
Staphylococcus aureus [6] = assay: Inhibition of multidrug-resistant efflux pump in methicillin-resistant Staphylococcus aureus effluxing isolate assessed as fold reduction of Norfloxacin MIC at 10 ug/ml by microdilution method; assay type: functional
Staphylococcus aureus [7] = assay: Inhibition of multidrug-resistant efflux pump in methicillin-resistant Staphylococcus aureus effluxing isolate assessed as fold reduction of tetraphenylphosphonium bromide MIC at 10 ug/ml by microdilution method; assay type: functional
Staphylococcus aureus [8] = assay: Inhibition of multidrug-resistant efflux pump in methicillin-resistant Staphylococcus aureus effluxing isolate assessed as fold reduction of citramide MIC at 10 ug/ml by microdilution method; assay type: functional, organism-based

Which MIC50 (Staphylococcus aureus [1]) does the source give for N=C(NCCCCCCNC(=N)NC(=N)Nc1ccc(Cl)cc1)NC(=N)Nc1ccc(Cl)cc1 [CHLORHEXIDINE] here?
Its MIC50 is 0.31 µg/mL (≈ 0.613 µM).

What about the MIC90 (Staphylococcus aureus [1]) of the same molecule?
Its MIC90 is 0.63 µg/mL (≈ 1.25 µM).

And the “fold change (FC)” value (Staphylococcus aureus [2])?
The value was 8.

What does the source list for Cc1cc(N)c2ccccc2[n+]1CCCCCCCCCC[n+]1c(C)cc(N)c2ccccc21.[Cl-].[Cl-] [DEQUALINIUM CHLORIDE]?
MIC50 (Staphylococcus aureus [1]): 1.25 µg/mL; MIC90 (Staphylococcus aureus [1]): 5 µg/mL; fold change (FC) (Staphylococcus aureus [3]): 4

C[n+]1c2cc(N)ccc2cc2ccc(N)cc21.[Cl-] [EUFLAVINE] was tested. Which “fold change (FC)” value (Staphylococcus aureus [4]) did it give?
Its value is 4.

What about the MIC50 (Staphylococcus aureus [1]) of the same molecule?
Its MIC50 is 12.5 µg/mL.

What about the MIC90 (Staphylococcus aureus [1]) of the same molecule?
Its MIC90 is 50 µg/mL.

What does the source list for CC[n+]1c(-c2ccccc2)c2cc(N)ccc2c2ccc(N)cc21.[Br-] [HOMIDIUM BROMIDE]?
fold change (FC) (Staphylococcus aureus [5]): 8; MIC50 (Staphylococcus aureus [1]): 6.25 µg/mL; MIC90 (Staphylococcus aureus [1]): 25 µg/mL

What does the source list for CCn1cc(C(=O)O)c(=O)c2cc(F)c(N3CCNCC3)cc21 [NORFLOXACIN]?
fold change (FC) (Staphylococcus aureus [6]): 4; MIC50 (Staphylococcus aureus [1]): 12.5 µg/mL (≈ 39.1 µM); MIC90 (Staphylococcus aureus [1]): > 100 µg/mL

With [Br-].c1ccc([P+](c2ccccc2)(c2ccccc2)c2ccccc2)cc1 [TETRAPHENYLPHOSPHONIUM BROMIDE] as the molecule, how does the MIC50 (Staphylococcus aureus [1]) read?
Its MIC50 is 25 µg/mL.

And the MIC90 (Staphylococcus aureus [1])?
Its MIC90 is 50 µg/mL.

And the “fold change (FC)” value (Staphylococcus aureus [7])?
Its value is 4.

For CETRIMIDE, which fold change (FC) (Staphylococcus aureus [8]) is on record?
Its fold change (FC) is 4.

What about the MIC50 (Staphylococcus aureus [1]) of the same molecule?
Its MIC50 is 0.63 µg/mL.

What about the MIC90 (Staphylococcus aureus [1]) of the same molecule?
The MIC90 was 1.25 µg/mL.
